Reference: the supplement of paper PMC10307832

Columns and labels:
Test in all cases: relative viability (nuclei count vs DMSO), 5 days (fraction); higher = more cells survive
[1] = compound: CNC(=O)c1cc(Oc2ccc(NC(=O)Nc3ccc(Cl)c(C(F)(F)F)c3)cc2)ccn1 [Sorafenib]
Outline: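 Viability was read as treated-well nuclei divided by vehicle-well nuclei, using the median across plates. Lung cancer cell lines in 1536-well plates were kept overnight at 37 °C, pinned with five √10-spaced library-drug doses, and after 5 days were Hoechst-stained, imaged at 4× and counted in MetaXpress. Plates passed only with control CV below 25% and at least one doubling.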

[2] = compound: CNC(=O)c1cc(Oc2ccc(NC(=O)Nc3ccc(Cl)c(C(F)(F)F)c3)cc2)ccn1 [Sorafenib] + N=C(N)NC(=N)NCCc1ccccc1 [Phenformin] (partner 250 µM)
Outline: (§1)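 Cells from lung cancer lines were seeded into 1536-well plates and, one day later, dosed by pin tool. Treatments were either a single drug or a fixed dose of an anchor drug with five library-drug doses (not always all listed) in √10 steps. After 5 days, nuclei were stained in a one-step fixation (final 0.05% Triton X-100, 1% formaldehyde, 1 ug/ml Hoechst) and counted on 4× images, and relative viability is the treated-to-vehicle nuclei ratio, as the median of duplicate plates.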

[3] = compound: CNC(=O)c1cc(Oc2ccc(NC(=O)Nc3ccc(Cl)c(C(F)(F)F)c3)cc2)ccn1 [Sorafenib] + Nc1nc2[nH]cc(CCc3ccc(C(=O)N[C@@H](CCC(=O)O)C(=O)O)cc3)c2c(=O)[nH]1 [Pemetrexed] (partner 0.2 µM)
Outline: as §1

[4] = compound: CNC(=O)c1cc(Oc2ccc(NC(=O)Nc3ccc(Cl)c(C(F)(F)F)c3)cc2)ccn1 [Sorafenib] + Cc1cc(Nc2cc(N3CCN(C)CC3)nc(Sc3ccc(NC(=O)C4CC4)cc3)n2)n[nH]1 [Tozasertib] (partner 0.1 µM)
Outline: as §1

[5] = compound: CNC(=O)c1cc(Oc2ccc(NC(=O)Nc3ccc(Cl)c(C(F)(F)F)c3)cc2)ccn1 [Sorafenib] + CC(=O)c1c(C)c2cnc(Nc3ccc(N4CCNCC4)cn3)nc2n(C2CCCC2)c1=O [Palbociclib] (partner 0.5 µM)
Outline: as §1

[6] = compound: CNC(=O)c1cc(Oc2ccc(NC(=O)Nc3ccc(Cl)c(C(F)(F)F)c3)cc2)ccn1 [Sorafenib] + O=C(CCCCCCC(=O)Nc1ccccc1)NO [Vorinostat] (partner 1 µM)
Outline: as §1

[7] = compound: CNC(=O)c1cc(Oc2ccc(NC(=O)Nc3ccc(Cl)c(C(F)(F)F)c3)cc2)ccn1 [Sorafenib] + Cc1nc(Nc2ncc(C(=O)Nc3c(C)cccc3Cl)s2)cc(N2CCN(CCO)CC2)n1 [Dasatinib] (partner 0.075 µM)
Outline: as §1

[8] = compound: CNC(=O)c1cc(Oc2ccc(NC(=O)Nc3ccc(Cl)c(C(F)(F)F)c3)cc2)ccn1 [Sorafenib] + Nc1ncn([C@H]2C[C@H](O)[C@@H](CO)O2)c(=O)n1 [Decitabine] (partner 2 µM)
Outline: as §1

[9] = compound: CNC(=O)c1cc(Oc2ccc(NC(=O)Nc3ccc(Cl)c(C(F)(F)F)c3)cc2)ccn1 [Sorafenib] + CC(=O)Nc1cccc(-n2c(=O)n(C3CC3)c(=O)c3c(Nc4ccc(I)cc4F)n(C)c(=O)c(C)c32)c1 [Trametinib] (partner 0.02 µM)
Outline: as §1

[10] = compound: CNC(=O)c1cc(Oc2ccc(NC(=O)Nc3ccc(Cl)c(C(F)(F)F)c3)cc2)ccn1 [Sorafenib] + COc1cccc2cc(-c3nc([C@H]4CC[C@H](C(=O)O)CC4)n4ncnc(N)c34)[nH]c12 [OSI-027] (partner 0.5 µM)
Outline: as §1

[11] = compound: CNC(=O)c1cc(Oc2ccc(NC(=O)Nc3ccc(Cl)c(C(F)(F)F)c3)cc2)ccn1 [Sorafenib] + O=C(c1cc(Cc2n[nH]c(=O)c3ccccc23)ccc1F)N1CCN(C(=O)C2CC2)CC1 [Olaparib] (partner 8 µM)
Outline: as §1

[12] = compound: CNC(=O)c1cc(Oc2ccc(NC(=O)Nc3ccc(Cl)c(C(F)(F)F)c3)cc2)ccn1 [Sorafenib] + CCNC(=O)c1noc(-c2cc(C(C)C)c(O)cc2O)c1-c1ccc(CN2CCOCC2)cc1 [Luminespib] (partner 0.01 µM)
Outline: as §1

[13] = compound: CNC(=O)c1cc(Oc2ccc(NC(=O)Nc3ccc(Cl)c(C(F)(F)F)c3)cc2)ccn1 [Sorafenib] + NC(=O)Nc1cc(-c2cccc(F)c2)sc1C(=O)N[C@H]1CCCNC1 [AZD7762] (partner 0.2 µM)
Outline: as §1

[14] = compound: CNC(=O)c1cc(Oc2ccc(NC(=O)Nc3ccc(Cl)c(C(F)(F)F)c3)cc2)ccn1 [Sorafenib] + CS(=O)(=O)N1CCN(Cc2cc3nc(-c4cccc5[nH]ncc45)nc(N4CCOCC4)c3s2)CC1 [Pictilisib] (partner 1 µM)
Outline: as §1

[15] = compound: CNC(=O)c1cc(Oc2ccc(NC(=O)Nc3ccc(Cl)c(C(F)(F)F)c3)cc2)ccn1 [Sorafenib] + COc1cc2c(Oc3ccc(NC(=O)C4(C(=O)Nc5ccc(F)cc5)CC4)cc3F)ccnc2cc1OCCCN1CCOCC1 [Foretinib] (partner 0.25 µM)
Outline: as §1

[16] = compound: CNC(=O)c1cc(Oc2ccc(NC(=O)Nc3ccc(Cl)c(C(F)(F)F)c3)cc2)ccn1 [Sorafenib] + C[C@]1(O)C[C@@H](c2nc(-c3ccc4ccc(-c5ccccc5)nc4c3)c3c(N)nccn32)C1 [Linsitinib] (partner 1 µM)
Outline: as §1

[17] = compound: CNC(=O)c1cc(Oc2ccc(NC(=O)Nc3ccc(Cl)c(C(F)(F)F)c3)cc2)ccn1 [Sorafenib] + CS(=O)(=O)CCNCc1ccc(-c2ccc3ncnc(Nc4ccc(OCc5cccc(F)c5)c(Cl)c4)c3c2)o1 [Lapatinib] (partner 2 µM)
Outline: as §1

[18] = compound: CNC(=O)c1cc(Oc2ccc(NC(=O)Nc3ccc(Cl)c(C(F)(F)F)c3)cc2)ccn1 [Sorafenib] + Cc1nc(NC(=O)N2CCC[C@H]2C(N)=O)sc1-c1ccnc(C(C)(C)C(F)(F)F)c1 [Alpelisib] (partner 2 µM)
Outline: as §1

NCI-H522
relative viability ([1]; 0.08 µM): 1.04
relative viability ([1]; 0.253 µM): 0.877
relative viability ([1]; 2.53 µM): 0.865
relative viability ([1]; 8 µM): 0.648
relative viability ([2]; first compound 0.08 µM): 0.512
relative viability ([2]; first compound 0.253 µM): 0.526
relative viability ([2]; first compound 2.53 µM): 0.695
relative viability ([2]; first compound 8 µM): 0.478
relative viability ([3]; first compound 0.08 µM): 1.02
relative viability ([3]; first compound 0.253 µM): 0.782
relative viability ([3]; first compound 2.53 µM): 0.863
relative viability ([3]; first compound 8 µM): 0.883
relative viability ([4]; first compound 0.08 µM): 0.626
relative viability ([4]; first compound 0.253 µM): 0.596
relative viability ([4]; first compound 2.53 µM): 0.588
relative viability ([4]; first compound 8 µM): 0.523
relative viability ([5]; first compound 0.08 µM): 0.988
relative viability ([5]; first compound 0.253 µM): 0.92
relative viability ([5]; first compound 2.53 µM): 1.2
relative viability ([5]; first compound 8 µM): 0.591
relative viability ([6]; first compound 0.08 µM): 1.02
relative viability ([6]; first compound 0.253 µM): 0.81
relative viability ([6]; first compound 2.53 µM): 0.89
relative viability ([6]; first compound 8 µM): 0.741
relative viability ([7]; first compound 0.08 µM): 0.904
relative viability ([7]; first compound 2.53 µM): 0.859
relative viability ([7]; first compound 8 µM): 0.772
relative viability ([8]; first compound 0.08 µM): 0.645
relative viability ([8]; first compound 0.253 µM): 0.686
relative viability ([8]; first compound 2.53 µM): 0.657
relative viability ([8]; first compound 8 µM): 0.648
relative viability ([9]; first compound 0.08 µM): 0.789
relative viability ([9]; first compound 0.253 µM): 0.664
relative viability ([9]; first compound 2.53 µM): 0.748
relative viability ([9]; first compound 8 µM): 0.58
relative viability ([10]; first compound 0.08 µM): 0.649
relative viability ([10]; first compound 0.253 µM): 0.631
relative viability ([10]; first compound 2.53 µM): 0.672
relative viability ([10]; first compound 8 µM): 0.552
relative viability ([11]; first compound 0.08 µM): 0.68
relative viability ([11]; first compound 0.253 µM): 0.634
relative viability ([11]; first compound 2.53 µM): 0.775
relative viability ([11]; first compound 8 µM): 0.541
relative viability ([12]; first compound 0.08 µM): 1.28
relative viability ([12]; first compound 0.253 µM): 1.19
relative viability ([12]; first compound 2.53 µM): 0.929
relative viability ([12]; first compound 8 µM): 0.992
relative viability ([13]; first compound 0.08 µM): 1.1
relative viability ([13]; first compound 0.253 µM): 0.556
relative viability ([13]; first compound 2.53 µM): 0.874
relative viability ([13]; first compound 8 µM): 0.723

A549
relative viability ([1]; 0.08 µM): 1.07
relative viability ([1]; 0.253 µM): 0.921
relative viability ([1]; 8 µM): 0.523
relative viability ([14]; first compound 0.08 µM): 0.631
relative viability ([14]; first compound 0.253 µM): 0.5
relative viability ([14]; first compound 2.53 µM): 0.412
relative viability ([14]; first compound 8 µM): 0.116
relative viability ([2]; first compound 0.08 µM): 0.213
relative viability ([2]; first compound 0.253 µM): 0.158
relative viability ([2]; first compound 2.53 µM): 0.193
relative viability ([2]; first compound 8 µM): 0.0523
relative viability ([15]; first compound 0.08 µM): 0.904
relative viability ([15]; first compound 0.253 µM): 0.893
relative viability ([15]; first compound 2.53 µM): 0.896
relative viability ([15]; first compound 8 µM): 0.584
relative viability ([16]; first compound 0.253 µM): 0.622
relative viability ([16]; first compound 2.53 µM): 0.512
relative viability ([16]; first compound 8 µM): 0.341
relative viability ([8]; first compound 0.08 µM): 0.233
relative viability ([8]; first compound 0.253 µM): 0.34
relative viability ([8]; first compound 2.53 µM): 0.218
relative viability ([8]; first compound 8 µM): 0.245
relative viability ([17]; first compound 0.08 µM): 1.02
relative viability ([17]; first compound 2.53 µM): 0.962
relative viability ([17]; first compound 8 µM): 0.208
relative viability ([11]; first compound 0.08 µM): 0.496
relative viability ([11]; first compound 0.253 µM): 0.289
relative viability ([11]; first compound 2.53 µM): 0.302
relative viability ([11]; first compound 8 µM): 0.208
relative viability ([18]; first compound 0.08 µM): 0.803
relative viability ([18]; first compound 0.253 µM): 0.664
relative viability ([18]; first compound 2.53 µM): 0.735
relative viability ([18]; first compound 8 µM): 0.453
